Data as given in patent US20130096067A1, “DROSOPHILA TUMOR STEM CELL MODEL AND USES THEREOF” (priority 2011, published 2013).
Square brackets hold non-standard residues; d marks the D form. Peptide text beside a SMILES is read from it. Phe(ol) = N[C@H](CO)Cc1ccccc1; Aib = CC(C)(N)C(=O)O

Test system: Raf-1^gof intestinal tumors
Conditions: for Log2 (fold) of luciferase activity relative to DMSO controls / Fold (luciferase activity relative to DMSO controls): ICCB compounds fed in vials to flies with one-day old Raf-1^gof tumors; for Log2 (fold) of luciferase activity relative to DMSO controls / Fold (luciferase activity relative to DMSO controls) / Log2 (fold) (luciferase activity, log2 of the fold difference relative to DMSO controls) / Fold (luciferase activity, fold difference relative to DMSO controls): assessed three days later; for Fold (luciferase activity relative to DMSO controls) / Fold (luciferase activity, fold difference relative to DMSO controls): averaged from multiple wells; for Log2 (fold) (luciferase activity, log2 of the fold difference relative to DMSO controls) / Fold (luciferase activity, fold difference relative to DMSO controls): screen of 480 ICCB compounds in vials, compounds fed to flies with one-day old Raf-1^gof tumors, esg-Gal4 luciferase; for Fold: luciferase relative to DMSO, fed three consecutive days in vials
[1] = Table 3 summary of hits, Screen ICCB
Throughout, for Fold (luciferase activity relative to DMSO controls): test concentration or dose not given here.
Throughout, for Fold (luciferase activity, fold difference relative to DMSO controls): test concentration or dose not given here.
Throughout, for Log2 (fold) (luciferase activity, log2 of the fold difference relative to DMSO controls): test concentration or dose not given here.
Throughout, for Log2 (fold) of luciferase activity relative to DMSO controls: test concentration or dose not given here.

Row | Compound | Log2 (fold) of luciferase activity relative to DMSO controls | Fold (luciferase activity relative to DMSO controls) [fold] | Log2 (fold) (luciferase activity, log2 of the fold difference relative to DMSO controls) | Fold (luciferase activity, fold difference relative to DMSO controls) | also measured
1 | CC(O)(C(=O)Nc1ccc(S(=O)(=O)c2ccccc2)cc1)C(F)(F)F (centres unmarked) [ZM226600] | −0.117 | 0.922 | – | – | –
2 | Cc1ccc(NC(=O)c2cccc(N(C)C)c2)cc1NC(=O)c1ccc(O)cc1 [ZM336372] | – | – | −0.338 | 0.791 | –
3 | CC(=O)N[C@@H](CSCC=C(C)CCC=C(C)CCC=C(C)C)C(=O)O [acetyl (N)-s-farnesyl-1-cysteine] | −0.036 | 0.975 | – | – | –
4 | CC(=O)NC(C)(C)C(=O)N1CCC[C@H]1C(=O)NC(C)(C)C(=O)N[C@@H](C)C(=O)NC(C)(C)C(=O)N[C@@H](C)C(=O)N[C@@H](CCC(N)=O)C(=O)NC(C)(C)C(=O)N[C@H](C(=O)NC(C)(C)C(=O)NCC(=O)N[C@@H](CC(C)C)C(=O)NC(C)(C)C(=O)N1CCC[C@H]1C(=O)N[C@H](C(=O)NC(C)(C)C(=O)NC(C)(C)C(=O)N[C@@H](CCC(=O)O)C(=O)N[C@@H](CCC(N)=O)C(=O)N[C@H](CO)Cc1ccccc1)C(C)C)C(C)C [alamethicin, reference compound] (Ac-[Aib]P[Aib]A[Aib]AQ[Aib]V[Aib]GL[Aib]PV[Aib][Aib]EQ[Phe(ol)]) | – | – | −1.167 | 0.445 | Fold [1]: 0.445 fold
5 | COc1ccc(C[C@H]2NC[C@H](O)[C@H]2OC(C)=O)cc1 [anisomycin] | −0.148 | 0.902 | – | – | –
6 | COc1cccc2c1cc([N+](=O)[O-])c1c(C(=O)O)cc3c(c12)OCO3 [aristolochic acid, reference compound] | – | – | −1.243 | 0.422 | Fold [1]: 0.422 fold
7 | CC[C@@H]1/C=C(\C)C[C@H](C)C[C@H](OC)[C@H]2O[C@@](O)(C(=O)C(=O)N3CCCC[C@H]3C(=O)O[C@H](/C(C)=C/[C@@H]3CC[C@@H](O)[C@H](OC)C3)[C@H](C)[C@@H](O)CC1=O)[C@H](C)C[C@@H]2OC [ascomycin (FK-520)] | −0.035 | 0.976 | – | – | –
8 | CO/C1=C\C(C)=C\[C@@H](C)[C@@H](O)[C@@H](C)C/C(C)=C/C=C/[C@H](OC)[C@@H]([C@@H](C)[C@@H](O)[C@H](C)[C@@]2(O)C[C@@H](O)[C@H](C)[C@@H](C(C)C)O2)OC1=O [bafilomycin A1] | – | – | −0.234 | 0.850 | –
9 | CC1(C)CCC2=C(O1)c1ccccc1C(=O)C2=O [beta-lapachone] | 0.070 | 1.050 | – | – | –
10 | CC(C)(Oc1ccc(CCNC(=O)c2ccc(Cl)cc2)cc1)C(=O)O [bezafibrate] | −0.211 | 0.864 | – | – | –
11 | CO[C@H](C/C=C\C=C\CC/C=C/C[C@H](C)/C=C/C(=C\C(=O)O)CC(=O)O)/C(C)=C\C=C(/C)C(=O)O [bongkrekic acid] | −0.102 | 0.932 | – | – | –
12 | C[C@H]1CCC/C=C/[C@@H]2C[C@H](O)C[C@H]2[C@H](O)/C=C/C(=O)O1 [brefeldin A] | – | – | −0.422 | 0.746 | –
13 | CCCCNc1cc(C(=O)O)cc(S(N)(=O)=O)c1Oc1ccccc1 [bumetanide] | −0.048 | 0.967 | – | – | –
14 | CCCC[C@@H](C=O)NC(=O)[C@H](CC(C)C)NC(=O)OCc1ccccc1 [calpeptin] | – | – | −0.235 | 0.849 | –
15 | COC[C@@H]([C@H](O)[C@H](O)C(=O)NCC[C@H](C)c1nc(/C=C/C[C@@H]2O[C@]3(C[C@@H](O)[C@@H]2C)O[C@H]([C@H](C[C@H](O)[C@H](C)[C@H](O)[C@H](C)/C=C(C)/C(C)=C/C=C/C(C)=C\C#N)OC)[C@H](OP(=O)(O)O)C3(C)C)co1)N(C)C [calyculin A, reference compound] | – | – | −1.276 | 0.413 | Fold [1]: 0.413 fold
16 | CC[C@@]1(O)C(=O)OCc2c1cc1n(c2=O)Cc2cc3ccccc3nc2-1 [camptothecin, reference compound] | – | – | – | – | Log2 (fold) [1]: −1.619
17 | Oc1cc2c(cc1O)CN(C(=S)NCCc1ccc(Cl)cc1)CCC2 [capsazepine] | −0.030 | 0.979 | – | – | –

Row | Compound | Log2 (fold) of luciferase activity relative to DMSO controls | Fold (luciferase activity relative to DMSO controls) [fold] | Log2 (fold) (luciferase activity, log2 of the fold difference relative to DMSO controls) | Fold (luciferase activity, fold difference relative to DMSO controls) | also measured
18 | O[C@H]1[C@H](O)[C@@H](O)CN2CC[C@H](O)[C@H]12 [castanospermine] | – | – | −0.351 | 0.784 | –
19 | Clc1cccc(Cl)c1N=C1NCCN1 [clonidine] | 0.087 | 1.062 | – | – | –
20 | CN1CCN(C2=Nc3cc(Cl)ccc3Nc3ccccc32)CC1 [clozapine] | −0.126 | 0.916 | – | – | –
21 | C[C@@H]1C[C@@H]([C@H](O)CC2CC(=O)NC(=O)C2)C(=O)[C@@H](C)C1 [cycloheximide, reference compound] | – | – | −1.568 | 0.337 | Fold [1]: 0.337 fold
22 | CCOC(=O)CN1C(=O)CC(C[C@@H](O)[C@@H]2C[C@@H](C)C[C@H](C)C2=O)CC1=O [cycloheximide-N-ethylethanoate] | −0.014 | 0.990 | – | – | –
23 | C=C1[C@@H](C)[C@H]2[C@H](Cc3ccccc3)NC(=O)[C@]23OC(=O)/C=C/[C@H](O)CCC[C@@H](C)C/C=C/[C@H]3[C@@H]1O [cytochalasin B] | – | – | −0.677 | 0.625 | –
24 | C=C1[C@@H](C)[C@H]2[C@H](Cc3ccccc3)NC(=O)[C@]23[C@H](OC(C)=O)/C=C/[C@@](C)(O)C(=O)[C@@H](C)C/C=C/[C@H]3[C@@H]1O [cytochalasin D] | – | – | −0.276 | 0.826 | –
25 | COc1c(C=O)c(O)cc2c1C(=O)c1ccccc1C2=O [damnacanthal] | – | – | −0.482 | 0.716 | –
26 | C=C1O[C@@](CO)(n2cnc3c(N)ncnc32)[C@H](O)[C@@H]1O [decoyinine] | – | – | −0.298 | 0.813 | –
27 | OC[C@H]1NC[C@@H](O)[C@@H](O)[C@@H]1O [deoxymannojirimycin(1)] | −0.125 | 0.917 | – | – | –
28 | OC[C@H]1NC[C@H](O)[C@@H](O)[C@@H]1O [deoxynorjrimycin(1)] | −0.154 | 0.899 | – | – | –
29 | C[C@@H]1C[C@H]2[C@@H]3CCC4=CC(=O)C=C[C@]4(C)[C@@]3(F)[C@@H](O)C[C@]2(C)[C@@]1(O)C(=O)CO [dexamethasone] | – | – | −0.245 | 0.844 | –
30 | CCCC(=O)Nc1ncnc2c1ncn2[C@@H]1O[C@@H]2COP(=O)(O)O[C@H]2[C@H]1OC(=O)CCC [dibutyrylcyclic AMP] | – | – | −0.701 | 0.615 | –
31 | CCCC(=O)Nc1nc2c(ncn2C2O[C@H]3COP(=O)(O)O[C@@H]3[C@@H]2OC(=O)CCC)c(=O)[nH]1 (some centres unmarked) [dibutyrylcyclic GMP] | – | – | −0.342 | 0.789 | –
32 | [Cl-].c1ccc2c(c1)[I+]c1ccccc1-2 [diphenyleneiodonium Cl] | – | – | −0.576 | 0.671 | –
33 | OCCN(CCO)c1nc(N2CCCCC2)c2nc(N(CCO)CCO)nc(N3CCCCC3)c2n1 [dipyridamole] | – | – | −0.431 | 0.742 | –
34 | COc1cccc2c1C(=O)c1c(O)c3c(c(O)c1C2=O)C[C@@](O)(C(=O)CO)C[C@@H]3O[C@H]1C[C@H](N)[C@H](O)[C@H](C)O1 [doxorubicin] | – | – | −0.520 | 0.697 | –
